From patent US20240299424A1, “USE OF PHYTOCANNABINOIDS FOR TREATING ENDOMETRIAL CANCER AND ENDOMETRIOSIS” (INTEGRATIVE THERAPY DISCOVERY LAB S.R.L., priority 2021, published 2024)

Assays:
[1] = system: 12Z endometriotic cell line; experiment: MTT cell viability assay, 12Z endometriotic cell line; assay type: cell-based, human; settings: single administration, 72 hours post-treatment, FIG. 15-20
Experimental: (§1) Ishikawa is a well differentiated type I cell line, was purchased from Sigma Aldrich (Milan, Italy). Ishikawa cells were grown in EMEM medium (Lonza, Milan, Italy), supplemented with 5% fetal bovine serum (FBS), 2 mM/L of glutamine, 100 IU/ml of penicillin, and […] of streptomycin. Primary EC cells PCEM004A, poorly differentiated mixed type I/II cell line, was grown in RPMI1640, supplemented with 20% FBS, 2 mM/L of glutamine, 100 IU/ml of penicillin, and […] of streptomycin. Immortalized human endometriotic cell line (12Z) was generated by infecting cells, obtained from a person undergoing laparoscopy, with SV40 virus. This cell line was purchased by Applied Biological Materials Inc and was maintained in Prigrow III medium supplemented with 20% no-heat inactivated FBS, 100 IU/ml of penicillin and […] of streptomycin. Human pancreatic ductal adenocarcinoma PANC-1 cell line was purchased by Sigma Aldrich (Milan, Italy) and cultured in DMEM high glucose medium (EuroClone, Milan, Italy) supplemented with 10% FBS, 2 mM L-glutamine, 100 IU/mL penicillin, […] streptomycin and 1 mM sodium pyruvate. The human glioblastoma U251 cell line (grade IV), obtained from European Collection of Cell Cultures (ECACC, Salisbury, UK), was maintained in EMEM supplemented with 10% FBS, 2 mmol/L L-glutamine, 100 IU/mL penicillin and 100 μg streptomicin. Media were changed every 48 hours until cells were 90% confluent. All cell lines were maintained at 37 C with 5% CO2 and 95% humidity.
(§2) EC cell lines, PANC-1, U251, and 12Z (3×10^4 cells/ml) were plated in 96-well plates, in a final volume of 100 microl/well. After 24 hours, treatments or vehicles were added for 72 hours. At least six replicates were used for each treatment. At the indicated time point, cell viability was assessed by adding 0.8 mg/ml of 3-[4,5-dimethylthiazol-2-yl]-2,5 diphenyl tetrazolium bromide (MTT, Sigma-Aldrich) to the media. After 3 hours, the plates were centrifuged, the supernatant was removed, and the pellet was solubilized with 100 microl/well of DMSO. The absorbance of the samples against a background control (medium alone) was measured at 570 nm using an ELISA reader microliter plate (BioTek Instruments, Winooski, VT, United States). IC50 was calculated by PRISM 5.0a software, for single phytocannabinoids.

[2] = system: 12Z endometriotic cell line; experiment: Transwell invasion assay, 12Z endometriotic cells; assay type: cell-based, human; settings: non-cytotoxic dose, 24 hours, Transwell/Matrigel, major effect order THC>CBG>CBD>CBDV>CBN>CBC, FIG. 22-30
Experimental: as §1
12Z cell invasion was evaluated by Transwell invasion assay using Transwell chambers (BD Biosciences, Franklin Lakes, NJ, USA) characterized by the upper face of the polycarbonate membrane covered with 1 mg/ml Matrigel. A total of 750 μl cell culture medium supplemented with 10% FBS was added in the lower chamber. Serum free culture medium ([…]) containing 2.5×10^4 12Z endometriotic cells was plated into the upper chamber with the appropriate treatment. After 24 hours of incubation, the cells remaining in the upper chamber were removed by cotton swabs. The cells on the lower and inner surface of the membrane were fixed in cold methanol, stained with hoechst and observed using a fluorescence microscope (BX51 fluorescence microscope, Olympus, Milan, Italy). A total of ten fields at ×10 magnification were selected at random to measure the average cell coverage using ImageJ software version 1.45s (National Institutes of Health, Bethesda, MD, USA). The experiments were performed in triplicate at least three times independently.

[3] = system: IL-33; experiment: RT/PCR TaqMan array, IL-33 gene expression in 12Z cells; assay type: cell-based, human; settings: 48 hours, CBG, CBC, CBN 30 microM, CBD, CBDV 10 microM, THC 40 microM
Experimental: (§3) Total RNA from untreated or single treated 12Z cell line with CBD, CBG, CBC, CBN, CBDV and THC was extracted using Rneasy Mini kit (Qiagen, Milan, Italy). One microgram of total RNA from each sample was subjected to reverse transcription in a total volume of 20 μL using the High-Capacity cDNA Archive Kit (Applied Biosystem, Foster City, PA, USA) according to the instructions. cDNAs were analyzed by qRT-PCR performed using an IQ5 Multicolor Real time PCR Detection system. Quantitative real-time gene expression was performed with the TaqMan® Array Plate, containing 15 associated cytokine genes and beta-actin as endogenous control gene, was purchased (Thermo Fisher, Grand Island, NY, USA) and used to evaluate the treatments in modulating 12Z-related genes. Measurement of housekeeping gene (beta-Actin) on the samples was used to normalize mRNA content. The gene expression levels of treated cell lines were expressed as normalized fold compared with vehicle-treated cells.

[4] = system: IL-1beta; experiment: RT/PCR TaqMan array, IL-1beta gene expression in 12Z cells; assay type: cell-based, human; settings: 48 hours, CBG, CBC, CBN 30 microM, CBD, CBDV 10 microM, THC 40 microM
Experimental: as §3

[5] = system: IL-6; experiment: RT/PCR TaqMan array, IL-6 gene expression in 12Z cells; assay type: cell-based, human; settings: 48 hours, CBG, CBC, CBN 30 microM, CBD, CBDV 10 microM, THC 40 microM
Experimental: as §3

[6] = system: CXCL8; experiment: RT/PCR TaqMan array, CXCL8 gene expression in 12Z cells; assay type: cell-based, human; settings: 48 hours, CBG, CBC, CBN 30 microM, CBD, CBDV 10 microM, THC 40 microM
Experimental: as §3

[7] = system: STAT-3; experiment: RT/PCR TaqMan array, STAT-3 gene expression in 12Z cells; assay type: cell-based, human; settings: 48 hours, CBG, CBC, CBN 30 microM, CBD, CBDV 10 microM, THC 40 microM
Experimental: as §3

[8] = system: endometrial cancer cell lines; experiment: MTT cell viability, endometrial cancer cell lines tested (Ishikawa and PCEM004A, stated jointly); assay type: cell-based, human; settings: endometrial cancer cell lines, individual phytocannabinoids
Experimental: as §1, §2

[9] = system: type I cells and mixed type endometrial cancer cell lines; settings: cited from earlier work

In the case of `C=C(C)[C@@H]1CCC(C)=C[C@H]1c1c(O)cc(CCCCC)cc1O` [CBD, 2-[(1R,6R)-3-methyl-6-prop-1-en-2-ylcyclohex-2-en-1-yl]-5-pentylbenzene-1,3-diol, reference compound], the “cytotoxicity (cell viability, % vs vehicle)” value [1] is reported as “induced cytotoxicity”, the endometriosis cell invasion [2] is reported as “effective in reducing endometriosis cells invasion” and the “IL-33 gene expression (normalized versus vehicle)” value [3] is reported as “reduced”. For the same compound, the “IL-1beta gene expression (normalized versus vehicle)” value [4] was “reduced”, the “IL-6 gene expression (normalized versus vehicle)” value [5] was “reduced” and the “CXCL8 gene expression (normalized versus vehicle)” value [6] was “reduced”. The “STAT-3 gene expression (normalized versus vehicle)” value [7] was “reduced”, the “dose dependence of effect on cell viability” value [8] was “dose dependent effect” and the chemotherapeutic drugs cytotoxicity ([9]; endometrial cancer cell lines) was “improves chemotherapeutic drugs cytotoxicity”. The cell viability ([9]; type I cells (cell death) and mixed type endometrial cancer cell lines (autophagy)) was “reduces cell viability”.
